Values of other authors as cited in patent US9592310B1 (priority 2004, dated 2017).

Q: Which “concentration at which chlorine dioxide is stable in water and aqueous solutions” value does the source give for `[O][Cl+][O-]` [Chlorine dioxide] here?
A: approximately 10 grams per Liter
